Measured values reported in patent publication US10449200B2, “Combined inhibition of the vitamin D receptor and poly(ADP) ribose polymerase (PARP) in the treatment of cancer” (Institute for Cancer Research, priority 2014, dated 2019).

Experiments:
BxPC3 cells [1] = assay: Immunofluorescence of DNA damage foci (phospho-γH2AX, Rad51, 53BP1) after gemcitabine; assay type: cell-based, human; details: BxPC3 VDRkd, TSA (500 nM) treatment, 4 hrs in gemcitabine (50 nM)
Protocol: For Immunofluorescence, cells were plated onto coverslips 24 hours pre-gemcitabine treatment. At different timepoints post gemcitabine treatment, cells were permeablized, fixed (4% paraformaldehyde) and stained. Antibodies to γH2AX (Millipore; 05-636), Rad51 (a gift), and 53BP1 were used. Alexa Fluor-conjugated (488, 555, and 647 nm) secondary antibodies (Molecular probes; A-11029, A-21428, A-21247) were used at a final concentration of 1 and nuclei counterstained with DAPI. Images were captured using a 40× or 63× high NA objective mounted on a semi-automated inverted microscope (Nikon TEi) with a charge-coupled device camera (Photometrics1394) using Nikon Elements 2.0. Exposure times for antibodies were optimized for control samples and identical exposure times used for the experimental samples. Images were quantitated and analyzed using Nikon Elements 2.0. Confocal images were taken using a Leica TCS-SP8 microscope controlled by LAS software (Leica Microsystems).
It was investigated if these repair pathways were abrogated after VDR knockdown by staining for foci formation by phospho-γH2AX, Rad51, and 53BP1, and measuring intensities after gemcitabine treatment (FIGS. 3, 4, and 5). BxPC3 (high VDR expression) and Panc1 (low VDR expression) cells were treated with gemcitabine (50 nM) for 2, 4, 8, and 18 hours, and fixed and stained for phospho-γH2AX, 53BP1, and Rad51. Foci quantitation included counting of nuclei with >5 foci and a separate measurement of the sum intensities of foci that were averaged for 5 separate immunofluorescence experiments. […] Weak but detectable phospho-γH2AX foci were visible within 4 hours of gemcitabine treatment in BxPC3 cells while it took 18 hours for foci to form in Panc1 cells (FIG. 3, A). Similarly, Rad51 foci were visible after 8 hours of gemcitabine treatment in BxPC3 cells compared to 18 hours in Panc1 cells (FIG. 3, A, FIG. 4, and FIG. 5).

Panc1 cells = assay: Rucaparib clonogenic assay; assay type: cell-based; details: Homo sapiens
Protocol: (§1) Cell viability assays. For clonogenic assays, 1000 cells per well were seeded into 6 well plates on day 0. Cells were treated with gemcitabine at various doses on day 1 for 24 hours, Gemcitabine was washed out on day 2, and cells were allowed to grow for a subsequent 10 days before being fixed (10% methanol+10% acetic acid) and stained with crystal violet (0.4% in 20% ethanol) for colony counting and quantitation. For Rucaparib clonogenic assays, the drug was added at various doses 24 hours after cell plating, and cells were allowed to grow for a subsequent 10 days in the presence of Rucaparib. For TSA clonogenic assays, the drug was added for 4 hours prior to addition of gemcitabine or vehicle for another 18 hours before drugs were washed away, and cells were allowed to grow in drug-free medium for 10 days.
(§2) BxPC3 and Panc1 cells were transfected with control, VDR, and BRCA1 siRNAs and their sensitivity to Rucaparib treatment was compared by clonogenic survival. […] For BXPC3 cells, the IC50s after knockdown of BRCA1 and VDR were 1 and 5 uM, respectively (FIG. 6, A) compared to the control IC50 of 9 μM.

BxPC3 cells [2] = assay: Rucaparib clonogenic assay; assay type: cell-based; details: Homo sapiens
Protocol: as §1, §2

IC50 (Panc1 cells; PANC-1, Panc1, control siRNA) | IC50 (Panc1 cells; PANC-1, Panc1, knockdown of BRCA1 (siRNA)) | IC50 (Panc1 cells; PANC-1, Panc1, knockdown of VDR (siRNA)) | IC50 (BxPC3 cells [2]; BXPC-3, BXPC3, knockdown of BRCA1 (siRNA)) | IC50 (BxPC3 cells [2]; BXPC-3, BXPC3, knockdown of VDR (siRNA)) | IC50 (BxPC3 cells [2]; BXPC-3, BxPC3, control siRNA) | SMILES | cells exhibiting Rad51 foci (BxPC3 cells [1])
– | – | – | – | – | – | CC(/C=C/C(=O)NO)=C\[C@@H](C)C(=O)c1ccc(N(C)C)cc1 [TSA, trichostatin A] | 89%
4000 nM | 3.5 nM | 400 nM | 1000 nM | 5000 nM | 9000 nM | CNCc1ccc(-c2[nH]c3cc(F)cc4c3c2CCNC4=O)cc1 [Rucaparib] | –
